Reference: patent publication US10011607B2, “Ethynyl derivatives” (Hoffmann-La Roche Inc., priority 2015, dated 2018)

Target: human mGlu4 receptor (Homo sapiens (Human), UniProt Q14833)
Experiment: Ca2+ mobilization in vitro assay on recombinant human mGlu4 expressed in HEK293 cells (PAM)
Assay type: cell-based
Settings: for Emax: HEK293, maximal response in % of maximal stimulatory effect of saturating L-AP4, read-out: Eff. (%); for EC50: HEK293 cells, human mGlu4, in presence of EC20 of L-AP4, read-out: EC50 (nM) mGlu4PAM
From the text: FIG. 1: Illustrates the experimental outline for mGlu4 PAM Ca^2+ mobilization screening assay and the determination of EC50 and % Emax values. […] A depression of the signal observed after addition of the EC20 concentration of L-AP4 was indicative of an inhibitory activity of the test compound.
Determination of EC50 Values Using a Ca2+ Mobilization In Vitro Assay on Recombinant Human mGlu4 Expressed in HEK293 Cells:
A monoclonal HEK-293 cell line stably transfected with a cDNA encoding for the human mGlu4 receptor was generated; for the work with mGlu4 Positive Allosteric Modulators (PAMs), a cell line with low receptor expression levels and low constitutive receptor activity was selected to allow the differentiation of agonistic versus PAM activity. Cells were cultured according to standard protocols (Freshney, 2000) in Dulbecco's Modified Eagle Medium with high glucose supplemented with 1 mM glutamine, 10% (vol/vol) heat-inactivated bovine calf serum, Penicillin/Streptomycin, 50 μg/ml hygromycin and 15 μg/ml blasticidin (all cell culture reagents and antibiotics from Invitrogen, Basel, Switzerland).
About 24 hrs before an experiment, 5×10^4 cells/well were seeded in poly-D-lysine coated, black/clear-bottomed 96-well plates. The cells were loaded with 2.5 μM Fluo-4AM in loading buffer (1×HBSS, 20 mM HEPES) for 1 hr at 37° C. and washed five times with loading buffer. The cells were transferred into a Functional Drug Screening System 7000 (Hamamatsu, Paris, France), and 11 half logarithmic serial dilutions of test compound at 37° C. were added and the cells were incubated for 10-30 min. with on-line recording of fluorescence. Following this pre-incubation step, the agonist (2S)-2-amino-4-phosphonobutanoic acid (L-AP4) was added to the cells at a concentration corresponding to EC20 with on-line recording of fluorescence; in order to account for day-to-day variations in the responsiveness of cells, the EC20 of L-AP4 was determined immediately ahead of each experiment by recording of a full dose-response curve of L-AP4.
Responses were measured as peak increase in fluorescence minus basal (i.e. fluorescence without addition of L-AP4), normalized to the maximal stimulatory effect obtained with saturating concentrations of L-AP4. Graphs were plotted with the % maximal stimulatory using XLfit, a curve fitting program that iteratively plots the data using Levenburg Marquardt algorithm. The single site competition analysis equation used was y=A+((B−A)/(1+((x/C)D))), where y is the % maximal stimulatory effect, A is the minimum y, B is the maximum y, C is the EC50, x is the log 10 of the concentration of the competing compound and D is the slope of the curve (the Hill Coefficient). From these curves the EC50 (drug concentration at which 50% of the maximal receptor activation was achieved), the Hill coefficient as well as the maximal response in % of the maximal stimulatory effect obtained with saturating concentrations of L-AP4 were calculated (see FIG. 1).

human mGlu4 receptor, sequence (Q14833 33-912): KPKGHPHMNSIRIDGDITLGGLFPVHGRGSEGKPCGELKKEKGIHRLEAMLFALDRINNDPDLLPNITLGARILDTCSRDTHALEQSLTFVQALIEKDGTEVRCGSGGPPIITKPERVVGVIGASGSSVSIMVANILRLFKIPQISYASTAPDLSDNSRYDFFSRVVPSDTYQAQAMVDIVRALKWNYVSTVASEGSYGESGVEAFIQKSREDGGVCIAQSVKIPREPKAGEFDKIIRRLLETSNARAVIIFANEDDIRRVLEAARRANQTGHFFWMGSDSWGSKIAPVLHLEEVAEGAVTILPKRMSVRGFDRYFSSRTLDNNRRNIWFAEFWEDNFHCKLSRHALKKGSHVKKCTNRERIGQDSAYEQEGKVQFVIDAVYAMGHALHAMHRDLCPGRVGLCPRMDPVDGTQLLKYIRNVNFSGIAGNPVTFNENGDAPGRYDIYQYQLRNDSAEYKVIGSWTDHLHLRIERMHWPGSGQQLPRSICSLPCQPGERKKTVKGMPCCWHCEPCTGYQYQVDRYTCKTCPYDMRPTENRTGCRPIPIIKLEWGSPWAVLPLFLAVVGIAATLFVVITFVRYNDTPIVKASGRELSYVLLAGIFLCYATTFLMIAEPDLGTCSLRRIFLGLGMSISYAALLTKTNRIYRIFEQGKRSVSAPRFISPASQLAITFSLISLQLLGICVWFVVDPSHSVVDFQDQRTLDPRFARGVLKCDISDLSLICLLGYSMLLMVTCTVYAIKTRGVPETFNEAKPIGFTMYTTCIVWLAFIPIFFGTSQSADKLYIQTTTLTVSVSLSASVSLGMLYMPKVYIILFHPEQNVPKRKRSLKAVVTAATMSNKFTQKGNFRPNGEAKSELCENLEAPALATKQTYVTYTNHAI

Compound | Emax | EC50
CC12CC(=O)N(c3c(F)cc(C#Cc4ccccc4)cc3F)C(=O)N1CCN(c1cnccn1)C2=O (racemic) [Example 32, (9aRS)-7-[2,6-difluoro-4-(2-phenylethynyl)phenyl]-9a-methyl-2-pyrazin-2-yl-4,9-dihydro-3H-pyrazino[1,2-c]pyrimidine-1,6,8-trione] | 112% | 88 nM
Cc1cncc(N2CCN3C(=O)N(c4c(F)cc(C#Cc5ccccc5)cc4F)C(=O)CC3(C)C2=O)n1 (racemic) [Example 34, (9aRS)-7-[2,6-difluoro-4-(2-phenylethynyl)phenyl]-9a-methyl-2-(6-methylpyrazin-2-yl)-4,9-dihydro-3H-pyrazino[1,2-c]pyrimidine-1,6,8-trione] | 114% | 148 nM
CC12CC(=O)N(c3c(F)cc(C#Cc4ccccc4)cc3F)C(=O)N1CCN(c1cccnn1)C2=O (racemic) [Example 46, (9aRS)-7-[2,6-difluoro-4-(2-phenylethynyl)phenyl]-9a-methyl-2-pyridazin-3-yl-4,9-dihydro-3H-pyrazino[1,2-c]pyrimidine-1,6,8-trione] | 106% | 132 nM
Cc1ccc(N2CCN3C(=O)N(c4c(F)cc(C#Cc5ccccc5)cc4F)C(=O)CC3(C)C2=O)nn1 (racemic) [Example 48, (9aRS)-7-[2,6-difluoro-4-(2-phenylethynyl)phenyl]-9a-methyl-2-(6-methylpyridazin-3-yl)-4,9-dihydro-3H-pyrazino[1,2-c]pyrimidine-1,6,8-trione] | 120% | 198 nM
Cn1ncc(N2CCN3C(=O)N(c4c(F)cc(C#Cc5ccccc5)cc4F)C(=O)CC3(C)C2=O)cc1=O (racemic) [Example 51, (9aRS)-7-[2,6-difluoro-4-(2-phenylethynyl)phenyl]-9a-methyl-2-(1-methyl-6-oxo-pyridazin-4-yl)-4,9-dihydro-3H-pyrazino[1,2-c]pyrimidine-1,6,8-trione] | 120% | 191 nM
CC12CC(=O)N(c3c(F)cc(C#Cc4ccccc4)cc3F)C(=O)N1CCN(c1nccs1)C2=O (racemic) [Example 52, (9aRS)-7-[2,6-difluoro-4-(2-phenylethynyl)phenyl]-9a-methyl-2-thiazol-2-yl-4,9-dihydro-3H-pyrazino[1,2-c]pyrimidine-1,6,8-trione] | 97% | 113 nM
Cc1cnc(N2CCN3C(=O)N(c4c(F)cc(C#Cc5ccccc5)cc4F)C(=O)CC3(C)C2=O)s1 (racemic) [Example 53, (9aRS)-7-[2,6-difluoro-4-(2-phenylethynyl)phenyl]-9a-methyl-2-(5-methylthiazol-2-yl)-4,9-dihydro-3H-pyrazino[1,2-c]pyrimidine-1,6,8-trione] | 100% | 88 nM
Cc1csc(N2CCN3C(=O)N(c4c(F)cc(C#Cc5ccccc5)cc4F)C(=O)CC3(C)C2=O)n1 (racemic) [Example 54, (9aRS)-7-[2,6-difluoro-4-(2-phenylethynyl)phenyl]-9a-methyl-2-(4-methylthiazol-2-yl)-4,9-dihydro-3H-pyrazino[1,2-c]pyrimidine-1,6,8-trione] | 97% | 48 nM
CC12CC(=O)N(c3c(F)cc(C#Cc4ccccc4)cc3F)C(=O)N1CCN(c1nc(C#N)cs1)C2=O (racemic) [Example 55, 2-[(9aRS)-7-[2,6-difluoro-4-(2-phenylethynyl)phenyl]-9a-methyl-1,6,8-trioxo-4,9-dihydro-3H-pyrazino[1,2-c]pyrimidin-2-yl]thiazole-4-carbonitrile] | 94% | 77 nM
CC12CC(=O)N(c3c(F)cc(C#Cc4ccccc4)cc3F)C(=O)N1CCN(c1nc(C(F)(F)F)cs1)C2=O (racemic) [Example 56, (9aRS)-7-[2,6-difluoro-4-(2-phenylethynyl)phenyl]-9a-methyl-2-[4-(trifluoromethyl)thiazol-2-yl]-4,9-dihydro-3H-pyrazino[1,2-c]pyrimidine-1,6,8-trione] | 88% | 166 nM
CC12CC(=O)N(c3c(F)cc(C#Cc4ccccc4)cc3F)C(=O)N1CCN(c1ncc(C(F)(F)F)s1)C2=O (racemic) [Example 57, (9aRS)-7-[2,6-difluoro-4-(2-phenylethynyl)phenyl]-9a-methyl-2-[5-(trifluoromethyl)thiazol-2-yl]-4,9-dihydro-3H-pyrazino[1,2-c]pyrimidine-1,6,8-trione] | 103% | 108 nM
Cn1cnc(N2CCN3C(=O)N(c4c(F)cc(C#Cc5ccccc5)cc4F)C(=O)CC3(C)C2=O)c1 (racemic) [Example 58, (9aRS)-7-[2,6-difluoro-4-(2-phenylethynyl)phenyl]-9a-methyl-2-(1-methylimidazol-4-yl)-4,9-dihydro-3H-pyrazino[1,2-c]pyrimidine-1,6,8-trione] | 91% | 214 nM
Cc1cn(C)c(N2CCN3C(=O)N(c4c(F)cc(C#Cc5ccccc5)cc4F)C(=O)CC3(C)C2=O)n1 (racemic) [Example 59, (9aRS)-7-[2,6-difluoro-4-(2-phenylethynyl)phenyl]-2-(1,4-dimethylimidazol-2-yl)-9a-methyl-4,9-dihydro-3H-pyrazino[1,2-c]pyrimidine-1,6,8-trione] | 107% | 104 nM
Cc1nc(N2CCN3C(=O)N(c4c(F)cc(C#Cc5ccccc5)cc4F)C(=O)CC3(C)C2=O)cn1C (racemic) [Example 60, (9aRS)-7-[2,6-difluoro-4-(2-phenylethynyl)phenyl]-2-(1,2-dimethylimidazol-4-yl)-9a-methyl-4,9-dihydro-3H-pyrazino[1,2-c]pyrimidine-1,6,8-trione] | 137% | 145 nM
Cn1ccc(N2CCN3C(=O)N(c4c(F)cc(C#Cc5ccccc5)cc4F)C(=O)CC3(C)C2=O)n1 (racemic) [Example 62, (9aRS)-7-[2,6-difluoro-4-(2-phenylethynyl)phenyl]-9a-methyl-2-(1-methylpyrazol-3-yl)-4,9-dihydro-3H-pyrazino[1,2-c]pyrimidine-1,6,8-trione] | 112% | 149 nM
Cn1nccc1N1CCN2C(=O)N(c3c(F)cc(C#Cc4ccccc4)cc3F)C(=O)CC2(C)C1=O (racemic) [Example 64, (9aRS)-7-[2,6-difluoro-4-(2-phenylethynyl)phenyl]-9a-methyl-2-(2-methylpyrazol-3-yl)-4,9-dihydro-3H-pyrazino[1,2-c]pyrimidine-1,6,8-trione] | 155% | 125 nM
Cc1cc(N2CCN3C(=O)N(c4c(F)cc(C#Cc5ccccc5)cc4F)C(=O)CC3(C)C2=O)n(C)n1 (racemic) [Example 66, (9aRS)-7-[2,6-difluoro-4-(2-phenylethynyl)phenyl]-2-(2,5-dimethylpyrazol-3-yl)-9a-methyl-4,9-dihydro-3H-pyrazino[1,2-c]pyrimidine-1,6,8-trione] | 142% | 85 nM
Cn1cc(N2CCN3C(=O)N(c4c(F)cc(C#Cc5ccccc5)cc4F)C(=O)CC3(C)C2=O)cn1 (racemic) [Example 67, (9aRS)-7-[2,6-difluoro-4-(2-phenylethynyl)phenyl]-9a-methyl-2-(1-methylpyrazol-4-yl)-4,9-dihydro-3H-pyrazino[1,2-c]pyrimidine-1,6,8-trione] | 129% | 113 nM
CC12CC(=O)N(c3c(F)cc(C#Cc4ccccc4)cc3Cl)C(=O)N1CCN(c1cccnc1)C2=O (racemic) [Example 74, (9aRS)-7-[2-chloro-6-fluoro-4-(2-phenylethynyl)phenyl]-9a-methyl-2-(3-pyridyl)-4,9-dihydro-3H-pyrazino[1,2-c]pyrimidine-1,6,8-trione] | 120% | 102 nM
CC12CC(=O)N(c3c(F)cc(C#Cc4ccccc4)cc3Cl)C(=O)N1CCN(c1ccncc1)C2=O (racemic) [Example 75, (9aRS)-7-[2-chloro-6-fluoro-4-(2-phenylethynyl)phenyl]-9a-methyl-2-(4-pyridyl)-4,9-dihydro-3H-pyrazino[1,2-c]pyrimidine-1,6,8-trione] | 128% | 210 nM
CC12CC(=O)N(c3c(F)cc(C#Cc4ccccc4)cc3Cl)C(=O)N1CCN(c1ccccn1)C2=O (racemic) [Example 76, (9aRS)-7-[2-chloro-6-fluoro-4-(2-phenylethynyl)phenyl]-9a-methyl-2-(2-pyridyl)-4,9-dihydro-3H-pyrazino[1,2-c]pyrimidine-1,6,8-trione] | 150% | 128 nM
